Measured values taken from patent US10004225B2, “Wearable insect repelling patch” (S. C. Johnson & Son, Inc., priority 2005, dated 2018).

Key:
mosquitoes [1] = assay: Field test in southern Florida, one-minute biting count on lower leg of human test subjects wearing patches; format: in vivo
From the text: We also conducted some field tests of the present invention in southern Florida using patches 10 dosed with metofluthrin. Human test subjects and designated untreated control entered the test site, each test subject being separated by a minimum of 25 meters (approx. 75 feet). Shortly after all test subjects and an untreated control were set up in the test site, a 15 second ‘nuisance’ pre-count was taken by counting or best estimating the number of mosquitoes landing or touching the visual areas on the test suit.
Directly after the ‘nuisance’ count, a one-minute biting pre-count of a lower leg was taken. The pre-count began by having each subject roll up one pant leg to the knee then count the number of mosquitoes landing or biting on the exposed skin over a one minute period. Once a mosquito landed, the insect was pushed away (flicked, swatted or other) from the leg.
After the precounts were made, each test subject attached insect repellent patches 10 to predetermined areas on the test suit. The location of the patches is described below.
Mosquito land or bite counts were then made as described above for the pre-counts, with counts taken every 5 minutes for the first 20 minutes. After the 20 minute count, the test subjects and controls moved locations, walking approximately 15 meters. This was followed by their immediately taking a 15-second nuisance and one-minute biting count. Additional counts were then made at 25 and 30 minutes at that new location. After the 30 minute counts, the test subjects and controls moved location again, walking approximately 15 meters. This is followed by their immediately taking a 15-second nuisance and the one-minute biting count. An additional count was then made again at 35 minutes. The test was concluded after the 35 minute count.
The patches 10 used in the test were treated with metofluthrin, the 103 cm^2 patches bearing 60 mg and the 51.6 cm^2 patches bearing about 30 mg of metofluthrin. The patch material was selected either from a substrate made of a nylon-type material or from a non-woven cloth made of rayon, polyester, polypropylene, and polyethylene fibers. No difference in performance between the two materials was detected.
When four, 103 cm^2 patch samples were used, the patches were placed on the side of each shoulder and on the outwardly facing side of each knee. For the four, 51.6 cm^2 patch samples, the patches were placed on the side of each shoulder and on the top of the shoe. The 103 cm^2 patches were too big to place on the shoe, and therefore only the 51.6 cm^2 patches were placed there. For the two, 51.6 cm^2 patch testing, one patch was placed on one shoulder and another was placed on the outwardly facing side of the opposing knee.
The Average Percent Biting Repellency was calculated using the following formula:
C2=control count at time corresponding with treatment count
T1=precount for test area
T2=test area count at designated time
The percent repellency was calculated by the following formula: […]

mosquitoes [2] = assay: Additional field tests with FIG. 4 type patches, wrist bands and ankle bands; format: in vivo; details: 7.5 cm×7.5 cm patches, 10 mg each, two or four patches, one or two wrist bands, five to sixty minute monitoring, heavy mosquito populations
Protocol: We then tried some additional field tests with respect to mosquitoes using FIG. 4 type patches. Patches were made be adhering a multi-layer non-woven cloth made of rayon, polyester, polypropylene, and polyethylene fibers 30 to a multi-laminate foil film 34 with strips of 3M double facing tape 32. The cloth was 7.5 cm×7.5 cm in top view, and the dosing included for each patch 10 mg of metofluthrin dissolved in 2.53 ml of acetone.
We then sealed the patches in towelette pouches for storage prior to use. When the patch was to be used, we opened the pouch by tearing it open, removed the patch, peeled off the multi-laminate foil, and attached the cloth/tape structure to the specified locations.
We tested the use of two patches, the use of four patches, the use of one or two wrist bands, and the use of one or two ankle bands. All achieved over 50% repellency throughout a five minute to sixty minute monitoring under conditions of heavy mosquito populations.

[3] = @ 25° C.; cited from earlier work

## CC=C[C@@H]1[C@@H](C(=O)OCc2c(F)c(F)c(COC)c(F)c2F)C1(C)C (racemic) [metofluthrin, 2,3,5,6-tetrafluoro-4-methoxymethylbenzyl (EZ)-(1RS,3RS)-2,2-dimethyl-3-(prop-1-enyl)-cyclopropanecarboxylate]
Mosquitoes [1]; 2 patches (51.6 cm^2, about 30 mg each), 3 reps, 0 min
  Percent Biting Repellency: 0%
Mosquitoes [1]; 2 patches (51.6 cm^2, about 30 mg each), 3 reps, 5 min
  Percent Biting Repellency: 42%
Mosquitoes [1]; 2 patches (51.6 cm^2, about 30 mg each), 3 reps, 10 min
  Percent Biting Repellency: 60%
Mosquitoes [1]; 2 patches (51.6 cm^2, about 30 mg each), 3 reps, 15 min
  Percent Biting Repellency: 90%
Mosquitoes [1]; 2 patches (51.6 cm^2, about 30 mg each), 3 reps, 20 min
  Percent Biting Repellency: 81%
Mosquitoes [1]; 2 patches (51.6 cm^2, about 30 mg each), 3 reps, 21 min, immediately after moving approx. 15 meters
  Percent Biting Repellency: 13%
Mosquitoes [1]; 2 patches (51.6 cm^2, about 30 mg each), 3 reps, 25 min
  Percent Biting Repellency: 82%
Mosquitoes [1]; 2 patches (51.6 cm^2, about 30 mg each), 3 reps, 30 min
  Percent Biting Repellency: 81%
Mosquitoes [1]; 2 patches (51.6 cm^2, about 30 mg each), 3 reps, 31 min, immediately after moving approx. 15 meters
  Percent Biting Repellency: 44%
Mosquitoes [1]; 2 patches (51.6 cm^2, about 30 mg each), 3 reps, 35 min
  Percent Biting Repellency: 73%
Mosquitoes [1]; 3 patches (103 cm^2, 60 mg each), 2 reps, 0 min
  Percent Biting Repellency: 0%
Mosquitoes [1]; 3 patches (103 cm^2, 60 mg each), 2 reps, 5 min
  Percent Biting Repellency: 75%
Mosquitoes [1]; 3 patches (103 cm^2, 60 mg each), 2 reps, 10 min
  Percent Biting Repellency: 100%
Mosquitoes [1]; 3 patches (103 cm^2, 60 mg each), 2 reps, 15 min
  Percent Biting Repellency: 100%
Mosquitoes [1]; 3 patches (103 cm^2, 60 mg each), 2 reps, 20 min
  Percent Biting Repellency: 100%
Mosquitoes [1]; 3 patches (103 cm^2, 60 mg each), 2 reps, 21 min, immediately after moving approx. 15 meters
  Percent Biting Repellency: 16%
Mosquitoes [1]; 3 patches (103 cm^2, 60 mg each), 2 reps, 25 min
  Percent Biting Repellency: 84%
Mosquitoes [1]; 3 patches (103 cm^2, 60 mg each), 2 reps, 30 min
  Percent Biting Repellency: 84%
Mosquitoes [1]; 3 patches (103 cm^2, 60 mg each), 2 reps, 31 min, immediately after moving approx. 15 meters
  Percent Biting Repellency: 64%
Mosquitoes [1]; 3 patches (103 cm^2, 60 mg each), 2 reps, 35 min
  Percent Biting Repellency: 100%
Mosquitoes [1]; 4 patches (103 cm^2), 2 reps, 0 min
  Percent Biting Repellency: 0%
Mosquitoes [1]; 4 patches (103 cm^2), 2 reps, 5 min
  Percent Biting Repellency: 96%
Mosquitoes [1]; 4 patches (103 cm^2), 2 reps, 10 min
  Percent Biting Repellency: 100%
Mosquitoes [1]; 4 patches (103 cm^2), 2 reps, 15 min
  Percent Biting Repellency: 100%
Mosquitoes [1]; 4 patches (103 cm^2), 2 reps, 20 min
  Percent Biting Repellency: 88%
Mosquitoes [1]; 4 patches (103 cm^2), 2 reps, 21 min, immediately after moving approx. 15 meters
  Percent Biting Repellency: 33%
Mosquitoes [1]; 4 patches (103 cm^2), 2 reps, 25 min
  Percent Biting Repellency: 50%
Mosquitoes [1]; 4 patches (103 cm^2), 2 reps, 30 min
  Percent Biting Repellency: 73%
Mosquitoes [1]; 4 patches (103 cm^2), 2 reps, 31 min, immediately after moving approx. 15 meters
  Percent Biting Repellency: 22%
Mosquitoes [1]; 4 patches (103 cm^2), 2 reps, 35 min
  Percent Biting Repellency: 96%
Mosquitoes [1]; 4 patches (103 cm^2, 60 mg each), 1 rep, 0 min
  Percent Biting Repellency: 0%
Mosquitoes [1]; 4 patches (103 cm^2, 60 mg each), 1 rep, 5 min
  Percent Biting Repellency: 85%
Mosquitoes [1]; 4 patches (103 cm^2, 60 mg each), 1 rep, 10 min
  Percent Biting Repellency: 94%
Mosquitoes [1]; 4 patches (103 cm^2, 60 mg each), 1 rep, 15 min
  Percent Biting Repellency: 100%
Mosquitoes [1]; 4 patches (103 cm^2, 60 mg each), 1 rep, 20 min
  Percent Biting Repellency: 92%
Mosquitoes [1]; 4 patches (103 cm^2, 60 mg each), 1 rep, 21 min, immediately after moving approx. 15 meters
  Percent Biting Repellency: 85%
Mosquitoes [1]; 4 patches (103 cm^2, 60 mg each), 1 rep, 25 min
  Percent Biting Repellency: 81%
Mosquitoes [1]; 4 patches (103 cm^2, 60 mg each), 1 rep, 30 min
  Percent Biting Repellency: 100%
Mosquitoes [1]; 4 patches (103 cm^2, 60 mg each), 1 rep, 31 min, immediately after moving approx. 15 meters
  Percent Biting Repellency: 61%
Mosquitoes [1]; 4 patches (103 cm^2, 60 mg each), 1 rep, 35 min
  Percent Biting Repellency: 94%
Mosquitoes [1]; patch sizes, dosages and locations of Example 3, even after user moved to a new location
  personal area repellency in field test (result in words): can successfully provide personal area repellency within a very brief time
Mosquitoes [2]
  repellency: over 50%
[3]
  Vapor pressure: 3.4 × 10^−6 mmHg @
